Reference: patent US20250281378A1, “PEPTIDE HAVING ACTIVITY OF PREVENTING HAIR LOSS OR PROMOTING HAIR GROWTH AND USE THEREOF” (CAREGEN CO., LTD., priority 2021, published 2025)

Experiments:
[1] = system: DKK-1 protein; assay: Western blotting of DKK-1 protein in DHT-treated HHFDPC; assay type: cell-based, human; conditions: HHFDPC with DHT 100 nM, peptide 500 nM, 5 μM, and 50 μM, 24 hours, vs negative control (DHT only), FIG. 5
Experimental: DKK-1 protein (dickkopf-related protein 1) is a hair loss-related protein known to be highly expressed in individuals with hair loss, especially male pattern hair loss, and its expression is known to be promoted by hormones such as DHT (Dihydrotestosterone). Accordingly, the expression of DKK-1 protein was induced by treating HHFDPC cells with DHT together with the peptide according to the Preparation Example of the present invention, and then the expression level of DKK-1 was measured through Western blotting to determine whether there was an effect of suppressing the expression of DKK-1 protein.
Specifically, as in [Experiment Example 1-1] above, HHFDPC was seeded in a 6-well culture plate at 4×10^5 cells/well and then cultured in MSC complete medium (mesenchymal stem cell complete media) for 24 hours. Next, the medium was replaced with serum free MSC complete medium and cultured again for 24 hours. […] After washing again with 0.1% PBS-T (0.1% Tween-20 in PBS) three times for 15 minutes each, DKK-1 protein was detected by treatment with ECL solution (GE Healthcare, USA).

[2] = system: MSX2; assay: RT-PCR of MSX2 expression in HHGMC; assay type: cell-based, human; conditions: peptide 500 nM, 5 μM, and 50 μM, 72 hours, vs untreated control group, FIG. 7
Experimental: Specifically, HHGMC (human hair germinal matrix cell, Sciencell, USA) was seeded in a 6-well culture plate at 4×10^5 cells/well and then cultured in MSC complete medium (mesenchymal stem cell complete media) for 24 hours. Next, the medium was replaced with serum free MSC complete medium and cultured again for 24 hours. Then, the HHGMC was treated with the peptide of SEQ ID NO: 1 prepared in the Preparation Example at concentrations of 500 nM, 5 μM, and 50 μM, respectively, and cultured at 37° C. for 72 hours. As a positive control, EGF was treated at a concentration of 50 nM, and as a negative control, HHGMC without any treatment was used. After washing with PBS, RNA was isolated by treating with 300 ? of easy blue (intron, Korea). Next, cDNA was synthesized using a cDNA synthesis kit (enzynomics, Korea) by quantification using nano drop, and PCR was performed using primers for MSX2 (base sequences of the primers are listed in Table 4 below) and PCR premix (enzynomics, Korea). Electrophoresis was performed on a 1.5% agarose gel, and MSX2 mRNA was detected using a band analysis system (Bio-Rad gel image system).

[3] = system: human hair follicle dermal papilla cells (HHFDPC); assay: Proliferation of dermal papilla cells (MTT, absorbance at 540 nm); assay type: cell-based; conditions: peptide 500 nM, 5 μM, and 50 μM, 72 hours, compared to the untreated control group, FIG. 1
Experimental: While culturing human hair follicle dermal dermal papilla cells (HHFDPC), the absorbance was measured after treatment with the peptide of the present invention to confirm whether there was an effect of promoting the proliferation of the HHFDPC dermal papilla cells.
Specifically, HHFDPC (Sciencell, USA) was seeded at 4×10^3 cells/well in a 96-well culture plate, cultured in MSC complete medium (mesenchymal stem cell complete media, Sciencell, USA) for 24 hours, and then the medium was replaced with serum free MSC complete medium and cultured for another 24 hours. Then, the HHFDPC was treated with the peptide of SEQ ID NO: 1 prepared in the Preparation Example at concentrations of 500 nM, 5 μM, and 50 μM, respectively, and cultured at 37° C. for 72 hours. As a positive control, minoxidil was treated at a concentration of 1 μM, and as a negative control, HHFDPC without any treatment was used. Then, 10 ? of 5 mg/ml MTT solution was added and cultured in a 37° C. CO2 incubator for 4 hours to stain the cells. After removing the medium, the cells were treated with 100 μl of DMSO and shaken for 10 minutes, and the number of HHFDPC cells was confirmed by measuring absorbance at a wavelength of 540 nm using a spectrophotometer.

[4] = system: p-AKT; assay: Western blotting of phosphorylated AKT in HHFDPC; assay type: cell-based, human; conditions: peptide 500 nM, 5 μM, and 50 μM, 24 hours, vs control group not treated, FIG. 2
Experimental: (§1) First, phosphorylated forms of AKT and ERK, which act as signaling molecules related to the proliferation of HHFDPC, were confirmed through Western blotting. Specifically, HHFDPC as in [Experiment Example 1-1] above was seeded at 4×10^5 cells/well in a 6-well culture plate, cultured in MSC complete medium (mesenchymal stem cell complete media) for 24 hours, and then the medium was replaced with serum free MSC complete medium and cultured for another 24 hours. Then, the HHFDPC was treated with the peptide of SEQ ID NO: 1 prepared in the Preparation Example at concentrations of 500 nM, 5 μM, and 50 μM, respectively, and cultured at 37° C. for 24 hours. As a positive control, minoxidil was treated at a concentration of 1 μM, and as a negative control, HHFDPC without any treatment was used. Then, Western blotting was performed to detect phosphorylated AKT and phosphorylated ERK. After washing with PBS, the cells were treated with 100 ? of lysis buffer to destroy cells, thereby obtaining cell lysate. After electrophoresis using a 10% SDS-PAGE gel, it was transferred to a PVDF membrane and blocked using 5% skim milk at room temperature for 30 minutes. […] After washing again with 0.1% PBS-T (0.1% Tween-20 in PBS) three times for 15 minutes each, p-AKT and p-ERK were detected by treatment with ECL solution (GE Healthcare, USA).

[5] = system: c-Myc; assay: RT-PCR of c-Myc expression in HHFDPC; assay type: cell-based, human; conditions: peptide 500 nM, 5 μM, and 50 µM, 24 hours, vs control group without any treatment, FIG. 4
Experimental: (§2) Furthermore, in order to determine whether the β-catenin moves to the nucleus and is activated to affect proliferation and differentiation, whether the expression of LEF-1, c-Myc and cyclin D1 (cyclin D1), which act as downstream factors, increases with β-catenin activation was confirmed through RT-PCR. Specifically, in the same manner as the previous Western blotting experiment, HHFDPC cells were cultured, treated with the peptides prepared in the Preparation Example of the present invention at concentrations of 500 nM, 5 μM, and 50 µM, respectively, and cultured at 37° C. for 24 hours. After washing the cells with PBS, RNA was isolated by treating them with 300 […] of easy blue (intron, Korea). Then, CDNA was synthesized using a cDNA synthesis kit (enzynomics, Korea) by quantifying it with nano drop, and PCR was performed using primers for LEF-1, c-Myc and cyclin D1 (sequences of the primers are listed in Table 2 below) and PCR premix (enzynomics, Korea). Electrophoresis was performed on a 1.5% agarose gel, and then the mRNA of LEF-1, c-Myc and cyclin D1 was detected using a band analysis system (Bio-Rad gel image system).

[6] = system: β-catenin; assay: Western blotting of β-catenin moved to the nucleus in HHFDPC; assay type: cell-based, human; conditions: HHFDPC nuclear proteins, peptide 500 nM, 5 µM, and 50 μM, 24 hours, vs control group not treated, FIG. 3
Experimental: In addition, in addition to p-AKT and p-ERK, in order to confirm the activation of β-catenin, which is known to affect cell proliferation and differentiation, whether β-catenin moved into the nucleus was confirmed through Western blotting. Specifically, the HHFDPC as in [Experiment Example 1-1] was seeded in a 6-well culture plate at an amount of 4×10^5 cells/well, cultured in MSC complete medium (mesenchymal stem cell complete media) for 24 hours. Next, the medium was replaced with serum free MSC complete medium and cultured again for 24 hours. Then, the HHFDPC was treated with the peptide of SEQ ID NO: 1 prepared in the Preparation Example at concentrations of 500 nM, […], and 50 μM, respectively, and cultured at 37° C. for 24 hours. As a positive control, minoxidil was treated at a concentration of 1 μM, and as a negative control, HHFDPC without any treatment was used. After washing with PBS, proteins in the nucleus were isolated using a nuclear protein extraction kit (Thermo scientific, USA). After electrophoresis using a 10% SDS-PAGE gel, it was transferred to a PVDF membrane and blocked using 5% skim milk at room temperature for 30 minutes. […] After washing again with 0.1% PBS-T (0.1% Tween-20 in PBS) three times for 15 minutes each, β-catenin was detected by treatment with ECL solution (GE Healthcare, USA).

[7] = system: cyclin D1; assay: RT-PCR of cyclin D1 expression in HHFDPC; assay type: cell-based, human; conditions: peptide 500 nM, 5 μM, and 50 µM, 24 hours, vs control group without any treatment, FIG. 4
Experimental: as §2

[8] = system: p-ERK; assay: Western blotting of phosphorylated ERK in HHFDPC; assay type: cell-based, human; conditions: peptide 500 nM, 5 μM, and 50 μM, 24 hours, vs control group not treated, FIG. 2
Experimental: as §1

[9] = system: LEF-1; assay: RT-PCR of LEF-1 expression in HHFDPC; assay type: cell-based, human; conditions: peptide 500 nM, 5 μM, and 50 µM, 24 hours, vs control group without any treatment, FIG. 4
Experimental: as §2

[10] = system: Keratin 14; assay: RT-PCR of Keratin 14 expression in HHORSC; assay type: cell-based, human; conditions: peptide 500 nM, 5 μM, and 50 μM, 72 hours, vs control group without treatment, FIG. 6
Experimental: (§3) Specifically, HHORSC (human hair outer root sheath cell, Sciencell, USA) was seeded in a 6-well culture plate at 4×10^5 cells/well and then cultured in MSC complete medium (mesenchymal stem cell complete media) for 24 hours. Next, the medium was replaced with serum free MSC complete medium and cultured again for 24 hours. Then, the HHORSC was treated with the peptide of Preparation Example consisting of amino acid sequence of SEQ ID NO: 1 at concentrations of 500 nM, 5 μM, and 50 μM, respectively, and cultured at 37° C. for 72 hours. As a positive control, EGF was treated at a concentration of 50 nM, and as a negative control, HHORSC without any treatment was used. After washing with PBS, RNA was isolated by treating with 300 ? of easy blue (intron, Korea). Then, CDNA was synthesized using a cDNA synthesis kit (enzynomics, Korea) by quantification using nano drop, and PCR was performed using primers for Keratin 14 and Keratin 19 (base sequences of each primer are listed in Table 3 below) and PCR premix (enzynomics, Korea). Electrophoresis was performed on a 1.5% agarose gel, and the mRNAs of Keratin 14 and Keratin 19 were detected using a band analysis system (Bio-Rad gel image system).

[11] = system: Keratin 19; assay: RT-PCR of Keratin 19 expression in HHORSC; assay type: cell-based, human; conditions: peptide 500 nM, 5 μM, and 50 μM, 72 hours, vs control group without treatment, FIG. 6
Experimental: as §3

KLQEHLDM [peptide of the present invention]
amount of DKK-1 protein [1]: the amount of DKK-1 protein was found to be reduced
amount of MSX2 mRNA [2]: the amount of mRNA increased further compared to the untreated control group
proliferation of HHFDPC (absorbance, MTT) [3]: proliferation of HHFDPC was promoted depending on the concentration of the treated peptide
phosphorylation of AKT (p-AKT) [4]: phosphorylation was found to be increased compared to the control group
amount of c-Myc mRNA [5]: the amount of mRNA increased further compared to the control group
β-catenin moved to the nucleus (activation of β-catenin) [6]: migration due to activation of β-catenin increased
amount of cyclin D1 mRNA [7]: the amount of mRNA increased further compared to the control group
phosphorylation of ERK (p-ERK) [8]: phosphorylation was found to be increased compared to the control group
amount of LEF-1 mRNA [9]: the amount of mRNA increased further compared to the control group
amount of Keratin 14 mRNA [10]: the amount of mRNA increased further compared to the control group
amount of Keratin 19 mRNA [11]: the amount of mRNA increased further compared to the control group
